Several values for one entry are separate records, joined by “and”; a condition that tells them apart may be missing. Equal entries are not always repeated. Where two headings read alike, the source gives them in different places.
Legend:
adults with migraine = assay: Consistency of treatment, ACHIEVE trials and long-term extension trial; format: in vivo, human
Method: Therapeutic gain (TG) was calculated for the ACHIEVE trial and separately for the first 3 attacks of moderate/severe pain intensity treated in the long term extension trial, using placebo data from ACHIEVE. The TG ratio (TGR) was the TG from the LTE divided by the TG in the ACHIEVE trial multiplied by 100. Following consultation with regulatory agencies, a consistency threshold for the TGR of 50% or greater was used for this analysis.

[1] = Phase 1 hepatic impairment PK study, single 100 mg dose; format: in vivo, human; conditions: 100 mg single oral dose; for AUC(0-inf) / AUC(0-t) / Cmax / Tmax / Vd/F / half-life: both sexes, human, plasma, po, 100 mg; for Tmax: read-out: Tmax, median (min-max); for Vd/F: read-out: Vz/F, mean ±SD; for half-life: read-out: t1/2, mean ±SD (converted)
From the text: The study was intended to enroll 24 male and female participants with hepatic impairment (8 mildly impaired, 8 moderately impaired, and 8 severely impaired) and 8 healthy male and female participants with normal hepatic function, aged 18 through 75 years, who were matched closely to the age, weight, and gender of the hepatically impaired groups.
Participants with hepatic impairment were categorized according to the Child-Pugh classification. Participants with moderate hepatic impairment (Child-Pugh B classification) were not enrolled until 4 patients with mild hepatic impairment (Child-Pugh A classification) had completed the study; participants with severe hepatic impairment (Child-Pugh C classification) were not to be enrolled until 4 patients with moderate hepatic impairment had completed the study. […] Healthy participants with normal hepatic function were recruited after participants with hepatic impairment had been enrolled in the study, in order to match them as closely as possible to the hepatically impaired participants with respect to age, weight, and gender. Participants with normal hepatic function were matched specifically according to age, not to exceed 5 years between the means of the normal group and the 3 hepatically impaired groups. Weight range deviated<20% between the means of the normal group and the 3 hepatically impaired groups; and gender, as much as possible to match the ratio of the normal hepatic function group to the 3 hepatically impaired groups.
Fasting continued for 4 hours after dosing. Because minimal to no accumulation was expected after once daily repeated dosing for ubrogepant, a single-dose study was considered adequate to satisfy the objectives of the present study.
(§1) Sampling was also done at the following times for plasma protein binding determinations: Day 1 at 0 hour (predose) and 2 hours post dose.

[2] = test system: adult patients with migraine; assay: Phase 3 Study 2 (NCT02867709) migraine efficacy; format: in vivo, human; conditions: Study 2, 50 mg
From the text: In two randomized, double-blind, placebo-controlled, Ph. […] Of the ubrogepant-treated patients in these two studies, approximately 89% were female, 82% were white, 15% were Black, and 17% were of Hispanic or Latino ethnicity. The mean age at study entry was 41 years (range of 18-75 years).
In all studies, patients were instructed to treat a migraine with moderate to severe headache pain intensity. […] Up to 23% of patients were taking preventive medications for migraine at baseline. None of these patients were on concomitant preventive medication that act on the CGRP pathway.
The primary efficacy analyses were conducted in patients who treated a migraine with moderate to severe pain. […] Pain freedom was defined as a reduction of moderate or severe headache pain to no pain, and MBS freedom was defined as the absence of the self-identified MBS (i.e., photophobia, phonophobia, or nausea). Among patients who selected an MBS, the most commonly selected was photophobia (56%), followed by phonophobia (24%) and nausea (19%).
Table 14 also presents the results of the analyses of the percentage of patients achieving pain relief at 2 hours (defined as a reduction in migraine pain from moderate or severe to mild or none) post-dose and the percentage of patients achieving sustained pain freedom between 2 to 24 hours post-dose.

plasma protein = assay: Plasma protein binding by equilibrium dialysis (hepatic impairment study); format: in vitro ADME, human
Method: as §1
Protein binding blood samples were collected from all participants starting on Day 1 at 0 hour (predose) and at 2 hours post-dose. The pre-dose samples collected prior to dosing for each participants were spiked with known quantities of ubrogepant.

CYP3A4 = molecular target: T1, CYP3A4 (Homo sapiens, UniProt P08684); assay: Expected interaction with weak or moderate CYP3A4 inducers
T1 construct: mainly eliminated by CYP3A4 metabolism; from tissue; host or cells: in vivo, the patient's own enzyme (the gut wall is mentioned)

BCRP and/or P-gp = assay: Predicted interaction with BCRP and/or P-gp inhibitors

T1 sequence (P08684 whole entry): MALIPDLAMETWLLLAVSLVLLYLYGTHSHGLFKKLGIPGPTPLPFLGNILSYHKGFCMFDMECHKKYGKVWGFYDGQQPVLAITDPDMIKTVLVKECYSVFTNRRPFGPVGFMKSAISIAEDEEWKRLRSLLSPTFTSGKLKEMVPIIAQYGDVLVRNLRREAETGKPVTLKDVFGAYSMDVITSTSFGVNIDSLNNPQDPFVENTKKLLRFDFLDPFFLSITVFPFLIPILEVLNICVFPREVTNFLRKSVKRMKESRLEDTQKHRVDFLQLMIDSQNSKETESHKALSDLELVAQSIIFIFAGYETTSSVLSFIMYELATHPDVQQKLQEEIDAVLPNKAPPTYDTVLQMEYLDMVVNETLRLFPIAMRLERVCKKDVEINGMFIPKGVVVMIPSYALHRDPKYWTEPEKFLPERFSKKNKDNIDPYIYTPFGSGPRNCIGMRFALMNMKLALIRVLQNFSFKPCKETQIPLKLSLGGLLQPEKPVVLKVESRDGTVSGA

## C[C@@H]1[C@H](c2ccccc2)C[C@H](NC(=O)c2cnc3c(c2)C[C@@]2(C3)C(=O)Nc3ncccc32)C(=O)N1CC(F)(F)F [ubrogepant, (3′S)-N-((3S,5S,6R)-6-methyl-2-oxo-5-phenyl-1-(2,2,2-trifluoroethyl)piperidin-3-yl)-2′-oxo-1′,2′,5,7-etrahydrospiro[cyclopenta[b]pyridine-6,3′-pyrrolo[2,3-b]pyridine]-3-carboxamide]
Adults with migraine; ACHIEVE ubrogepant 100 mg treated attacks
  rate of 2-hour pain relief: 61.4%
Adults with migraine; ACHIEVE ubrogepant 100 mg-treated attacks
  rate of 2 hour pain freedom: 21.2%
Adults with migraine; LTE trial, 100 mg, mean across first 3 attacks
  rate of 2 hour pain freedom: 21.6%
Adults with migraine; LTE trial, 100 mg, mean across first three attacks
  rate of 2-hour pain relief: 68.0%
[1]; mild hepatic impairment
  CL/F, mean ±SD: 66.38 ± 26.15 L/h
  Tmax: 1.5 h
  Vd/F: 559 ± 358 L
  half-life: 394 ± 356 min
[1]; moderate hepatic impairment
  AUC0-∞ (exposure) higher than in normal hepatic function: 52% and 50%
  CL/F, mean ±SD: 49.78 ± 23.84 L/h
  Cmax higher than in normal hepatic function: 25%
  Tmax: 2 h
  Vd/F: 365 ± 130 L
  half-life: 357 ± 161 min
[1]; normal hepatic function
  CL/F, mean ±SD: 69.01 ± 23.54 L/h
  Tmax: 1.75 h
  Vd/F: 533 ± 320 L
  half-life: 336 ± 221 min
[1]; severe hepatic impairment
  AUC0-∞ (exposure) higher than in normal hepatic function: 115%
  CL/F, mean ±SD: 31.23 ± 7.49 L/h
  Cmax higher than in normal hepatic function: 40%
  Tmax: 1.5 h
  Vd/F: 248 ± 29.9 L
  half-life: 337 ± 37.2 min
[1]; mild hepatic impairment, read-out: AUC0-inf, mean ±SD
  AUC(0-inf): 1760 ± 775 ng·h/mL
[1]; mild hepatic impairment, read-out: AUC0-t, mean ±SD
  AUC(0-t): 1750 ± 767 ng·h/mL
[1]; mild hepatic impairment, read-out: Cmax, mean ±SD
  Cmax: 411 ± 190 ng/mL
[1]; mild-impaired, read-out: Geometric LSM AUC0-t, Test
  AUC(0-t): 1610 ng·h/mL
[1]; mild-impaired, read-out: Geometric LSM AUC0-∞, Test
  AUC(0-inf): 1630 ng·h/mL
[1]; mild-impaired, read-out: Geometric LSM Cmax, Test
  Cmax: 375 ng/mL
[1]; moderate hepatic impairment, read-out: AUC0-inf, mean ±SD
  AUC(0-inf): 2820 ± 2060 ng·h/mL
[1]; moderate hepatic impairment, read-out: AUC0-t, mean ±SD
  AUC(0-t): 2780 ± 2020 ng·h/mL
[1]; moderate hepatic impairment, read-out: Cmax, mean ±SD
  Cmax: 480 ± 189 ng/mL
[1]; moderate-impaired, read-out: Geometric LSM AUC0-t, Test
  AUC(0-t): 2300 ng·h/mL
[1]; moderate-impaired, read-out: Geometric LSM AUC0-∞, Test
  AUC(0-inf): 2320 ng·h/mL
[1]; moderate-impaired, read-out: Geometric LSM Cmax, Test
  Cmax: 449 ng/mL
[1]; normal hepatic function, read-out: AUC0-inf, mean ±SD
  AUC(0-inf): 1600 ± 533 ng·h/mL
[1]; normal hepatic function, read-out: AUC0-t, mean ±SD
  AUC(0-t): 1590 ± 530 ng·h/mL
[1]; normal hepatic function, read-out: Cmax, mean ±SD
  Cmax: 406 ± 219 ng/mL
[1]; normal hepatic function, read-out: Geometric LSM AUC0-t, Reference
  AUC(0-t): 1510 ng·h/mL
[1]; normal hepatic function, read-out: Geometric LSM AUC0-∞, Reference
  AUC(0-inf): 1520 ng·h/mL
[1]; normal hepatic function, read-out: Geometric LSM Cmax, Reference
  Cmax: 360 ng/mL
[1]; severe hepatic impairment, read-out: AUC0-inf, mean ±SD
  AUC(0-inf): 3330 ± 705 ng·h/mL
[1]; severe hepatic impairment, read-out: AUC0-t, mean ±SD
  AUC(0-t): 3310 ± 704 ng·h/mL
[1]; severe hepatic impairment, read-out: Cmax, mean ±SD
  Cmax: 509 ± 75.8 ng/mL
[1]; severe-impaired, read-out: Geometric LSM AUC0-t, Test
  AUC(0-t): 3250 ng·h/mL
[1]; severe-impaired, read-out: Geometric LSM AUC0-∞, Test
  AUC(0-inf): 3270 ng·h/mL
[1]; severe-impaired, read-out: Geometric LSM Cmax, Test
  Cmax: 505 ng/mL
[2]
  Most Bothersome Symptom Free at 2 hours, % Responders: 38.9%
  Most Bothersome Symptom Free at 2 hours, Difference from Placebo: 11.5%
  Pain Relief at 2 hours, % Responders: 62.7%
  Pain free at 2 hours, % Responders: 21.8%
  Pain free at 2 hours, Difference from Placebo: 7.5%
  Sustained pain freedom at 2-24 hours, % Responders: 14.4%
Plasma protein; 0 hr (predose sample spiked with ubrogepant), mild-impaired
  percentage of protein-bound ubrogepant: 88.87 ± 1.12%
Plasma protein; 0 hr (predose sample spiked with ubrogepant), moderate-impaired
  percentage of protein-bound ubrogepant: 87.42 ± 1.89%
Plasma protein; 0 hr (predose sample spiked with ubrogepant), normal hepatic function
  percentage of protein-bound ubrogepant: 88.52 ± 0.84%
Plasma protein; 0 hr (predose sample spiked with ubrogepant), severe-impaired
  percentage of protein-bound ubrogepant: 84.58 ± 0.91%
Plasma protein; 2 hr post-dose, 100 mg, mild-impaired
  percentage of protein-bound ubrogepant: 89.9% and 89.85 ± 1.33%
Plasma protein; 2 hr post-dose, 100 mg, moderate-impaired
  percentage of protein-bound ubrogepant: 88.2% and 88.24 ± 1.02%
Plasma protein; 2 hr post-dose, 100 mg, normal hepatic function
  percentage of protein-bound ubrogepant: 89.3% and 89.28 ± 1.54%
Plasma protein; 2 hr post-dose, 100 mg, severe-impaired
  percentage of protein-bound ubrogepant: 85.3% and 85.27 ± 0.94%
CYP3A4; moderate CYP3A4 inducers
  reduction of ubrogepant exposure: 50-80%
CYP3A4; weak CYP3A4 inducers
  reduction of ubrogepant exposure: 20-50%
BCRP and/or P-gp
  highest predicted potential increase in exposure: ≤ 2 fold

Source: US20240180883A1, “TREATMENT OF MIGRAINE” (Allergan Pharmaceuticals International Limited, priority 2020, published 2024)
